Source: publication PMC4789278, “Pharmacological inhibition of LSD1 for the treatment of MLL-rearranged leukemia” (Journal of Hematology & Oncology, 2016)
“Also recorded” adds a separate entry of the source.

Assays:
[1] = Toxicity in mice (weight, blood test); assay type: in vivo
Description: Continuous infusion of 1 using a subcutaneously implanted osmotic pump was used for in vivo studies to avoid the unfavorable pharmacokinetics because this route may provide a stable plasma drug concentration.

[2] = tested on: MV4-11 leukemia; assay: Systemic mouse model of MV4-11 leukemia
Description: A mouse model of systemic MV4-11 leukemia was established by injecting 10^7 MV4-11 cells/mouse intravenously through the tail veil into NOD-SCID mice with an engraftment rate of 100 %. After 2 weeks, human CD33^+/CD45^+ leukemia cells (0.1–0.5 %) can be detected by FACS in blood samples of the mice. The disease progressed rapidly, causing deaths in ~6 weeks after leukemia transplantation. Thus, upon detection of MV4-11 engraftments, mice were randomly separated into treatment and control groups.
NOD-SCID mice (4 to 6 weeks old) were obtained from Jackson lab (Bar Harbor, ME, USA) and maintained under specific pathogen-free conditions; 10^7 MV4-11 cells/mouse were injected intravenously through the tail veil, and animal weights were monitored twice a week. After 2 weeks when the blood samples showing 0.1–0.5 % CD45+/CD33+ human leukemia cells, mice were randomly segregated into control and treatment groups. […] Animals were sacrificed when >20 % weight loss, hunched posture, ruffled fur, or inactivity was observed. The peripheral blood, spleen, and bone marrow cells were isolated and tested for CD45^+/CD33^+ using FACS. Log-rank analysis was used to determine statistical significance of the survival curves using Prism 5.0.

[3] = tested on: Molm-13 leukemia cells; assay: Antiproliferation assay (XTT), Molm-13; assay type: cell-based; conditions: Homo sapiens, MOLM-13, 360 h; 15-day treatment; MLL-rearranged leukemia; read-out: Molm-13 EC50 (antiproliferative)
Description: These compounds were incubated with a panel of six human leukemia and solid tumor cell lines, including two MLL-rearranged leukemia cells MV4-11 and Molm-13 containing fusion oncogenes MLL-AF4 and -AF9, respectively. […] Also included in the studies are breast cancer MCF-7 and prostate cancer LNCaP cells.
Proliferation inhibition assay for suspension leukemia cells was performed using an XTT assay kit (Roche) with our previously described method. Proliferation inhibition assay for solid tumor cell lines MCF-7 and LNCaP was performed using our previous described MTT assay. The antiproliferation EC50 values were determined by Prism, and the reported results were the mean values of at least three independent experiments.

[4] = biological target: T1, human MAO-B (Homo sapiens, UniProt P27338); assay: MAO-B inhibition (MAO-Glo); assay type: biochemical
T1 construct: purchased Sigma
T1 sequence (P27338 1-520): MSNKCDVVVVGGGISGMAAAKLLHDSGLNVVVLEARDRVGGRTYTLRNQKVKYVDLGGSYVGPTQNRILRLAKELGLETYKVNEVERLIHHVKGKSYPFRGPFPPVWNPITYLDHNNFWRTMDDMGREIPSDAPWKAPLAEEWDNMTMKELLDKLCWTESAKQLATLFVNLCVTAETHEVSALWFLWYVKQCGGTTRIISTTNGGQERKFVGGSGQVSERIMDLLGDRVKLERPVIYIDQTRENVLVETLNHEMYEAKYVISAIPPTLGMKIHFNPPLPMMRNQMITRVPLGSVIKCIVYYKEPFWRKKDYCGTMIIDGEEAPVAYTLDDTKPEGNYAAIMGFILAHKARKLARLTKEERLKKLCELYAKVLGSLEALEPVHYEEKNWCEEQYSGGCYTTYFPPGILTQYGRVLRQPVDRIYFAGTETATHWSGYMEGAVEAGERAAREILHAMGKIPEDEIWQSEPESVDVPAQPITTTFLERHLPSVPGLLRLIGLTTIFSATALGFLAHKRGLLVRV
Description: Because MAO-A and -B play important roles in the degradation of neurotransmitters (e.g., serotonin and dopamine) in the central nervous system, selective inhibition for LSD1 is highly desirable.
Recombinant human MAO-A and -B were purchased from Sigma. The inhibitory activity was determined using MAO-Glo assay kit (Promega). In brief, following the manufacturer’s protocol, assays were performed in 384-well white plates (Corning) using MAO-A or -B (100 nM) with a final volume of 20 μL. Reactions were quenched after 60 min by adding reconstituted luciferin detection reagent (20 μL/well); 20 min after addition of the detection reagent, the luminescence of each well was measured using Beckman DTX-880 microplate reader. IC50 calculation was similar to that of LSD1.

[5] = tested on: MV4-11 cells; assay: Cell migration assay (transwell); assay type: cell-based, human; conditions: treatment for 4 days
Description: Importantly, only these stem-like cancer cells can form new tumors when transplanted into a new host, while the other non-stem cancer cells fail to do so. These stem-like cancer cells are more drug resistant and believed to be responsible for tumor metastasis and relapse. […] CD14 and CD11b are two cell surface proteins characteristic to differentiated macrophages/monocytes. […] Similarly, incubation with 2 led to considerably more CD11b^+ cells (Fig. 3b).
Cell migration assay was performed in a 24-well transwell plate with 8-μm polyethylene terephthalate membrane filters (Falcon cell culture insert; Becton-Dickinson) separating the lower from the upper culture chambers, according to the manufacturer’s instructions. […] Triplicate samples of 10^6 cells/well were plated in the upper chamber containing serum-free RPMI-1640. RPMI-1640 supplemented with 10 % FBS in the bottom chamber was used to attract cells to move through the filter. Cells were allowed to incubate at 37 °C for 4 h, after which the cells that had migrated through the pores were harvested in the bottom chamber and counted. Results are presented as means ± s.d.

| IC50 [4] [µM] | Compound | weight losses and visible signs of toxicity ([1]; 2.5 and 5 mg/kg/day for 28 days, osmotic pump) | blood cell counts and hemoglobin vs control ([1]; blood test on day 28) | less leukemia cells in the blood ([2]; 2.5 mg/kg/day for 28 days) [%] | less leukemia cells in the spleen ([2]; 2.5 mg/kg/day for 28 days) [%] | reduction of MV4-11 leukemia cells in the bone marrow ([2]; 2.5 mg/kg/day for 28 days) [%] | human CD33+/CD45+ leukemia cells in the bone marrow (average) ([2]; 2.5 mg/kg/day for 28 days, control 33.6 %) [%] | median survival ([2]; 2.5 mg/kg/day for 28 days, control 34.5 days) [days] | inhibition of leukemia burdens in the bone marrow, spleen, and peripheral blood ([2]; 5 mg/kg) [%] | inhibition rate in the blood ([2]; 5 mg/kg/day for 28 days) [%] | inhibition rate in the bone marrow ([2]; 5 mg/kg/day for 28 days) [%] | inhibition rate in the spleen ([2]; 5 mg/kg/day for 28 days) [%] | median survival ([2]; 5 mg/kg/day for 28 days, control 45 days) [days] | EC50 [3] [µM] | ability of MV4-11 cells to migrate through a membrane with 8-μm pores [5] |
| --- | --- | --- | --- | --- | --- | --- | --- | --- | --- | --- | --- | --- | --- | --- | --- |
|  | CN1CCN(C(=O)CNC2CC2c2ccc(OCc3ccccc3)cc2)CC1 (stereo not drawn) [Compound 1] | did not cause weight losses as well as any visible signs of toxicity | no significant differences; also recorded: no significant changes in blood cell counts | 92 | 81 | 80 | 6.7 | 43 | > 89 | 99 | 96 | 89 | 60 | 0.096 |  |
| 480 | CN1CCN(C(=O)CNC2CC2c2ccc(-c3ccc(F)nc3)cc2)CC1 (stereo not drawn) [Compound 2] |  |  |  |  |  |  |  |  |  |  |  |  |  | reduced ability for MV4-11 cells to migrate |
